Reference: US10172821B2, “Histone deacetylase inhibitors” (President & Fellows of Harvard College, priority 2006, dated 2019)

How the values were obtained:
[1] = Degradation of SAHP in serum; assay type: in vitro ADME
Description: In less than 15 minutes, SAHP is completely degraded.
In less than 2 minutes, SAHP is completely degraded into phenol and the corresponding carboxylic acid.

[2] = test system: acetylated histones (AcH3K18); test: Pharmacodynamic effect by immunohistochemical staining for acetylated histones; assay type: in vivo; conditions: SAHP-treated mice compared to vehicle treated controls; FIG. 15
[3] = test system: Transformed lymphocytes derived from involved skin of IL-7 transgenic mice (lymphoproliferative disease similar to human cutaneous T-cell lymphoma); test: Topical treatment of mice with lymphoproliferative skin disease (CTCL model), histopathologic examination; assay type: in vivo; conditions: daily, fourteen days of therapy, versus vehicle control, FIG. 14
Text: FIG. 14. Interleukin-7 is a growth factor for T-cell development, in particular the gamma-delta subset. Transgenic mice overexpressing IL-7 in keratinocytes were developed by the laboratories of Thomas Kupper and Benjamin Rich, using a tissue-specific keratin-14 promoter element. These mice have been reported to develop a characteristic lymphoproliferative skin disease grossly and histologically similar to human cutaneous T-cell lymphoma (CTCL). Transformed lymphocytes derived from involved skin were passaged ex vivo and injected into syngeneic (non-transgenic) mice. After fourteen days, these mice develop a homogeneous lymphoproliferative disease. Two cohorts of five mice were included in a prospective study of topical, daily suberoyl hydroxamic acid phenyl ester (SAHP, also known as SHAPE) versus vehicle control. After fourteen days of therapy, mice were sacrificed and the treated region was dissected for histopathologic examination.

SMILES: O=C(CCCCCCC(=O)Oc1ccccc1)NO [SAHP, suberoyl hydroxamic acid phenyl ester]
- time until SAHP is completely degraded in serum ([1]; FIG. 6): less than 15 minutes
- time until SAHP is completely degraded into phenol and the corresponding carboxylic acid ([1]; more detailed study, FIG. 7): less than 2 minutes
- AcH3K18 staining (histone hyperacetylation) in treated skin [2]: hyperacetylated histone staining at the margin of compound treatment, with absent nuclear staining in the region of drug response
- lymphomatous infiltration within the treated window (hematoxylin-eosin staining) [3]: marked reduction in lymphomatous infiltration
